# Test results taken from patent US20100004342A1, “LFA-1 Inhibitors and Use Thereof” (priority 2003, published 2010).
# “Also recorded” adds a separate entry of the source. Like-named read-outs stand apart in the source and are kept apart here.
# Columns and labels:
# [1] = system: vascular endothelial cells; assay: Peripheral blood monocyte adhesion to vascular endothelial cell (BCECF-AM); type: cell-based, human; details: for number of the cells adhering to the vascular endothelial cells: cultured with 100 or 500 μM polyamine for 72 to 80 hours, compared with culture without
# [2] = system: peripheral blood monocytes; assay: Peripheral blood monocyte adhesion to culture plate (MTT); type: cell-based, human; details: for number of the cells adhering on the plate surface: cultured with varying concentrations of polyamines for 70 to 80 hours; for inhibition effect on cell adhesion to the cell culture plate: culture for approximately 16 to 24 hours
# Experimental: Peripheral blood monocytes were cultured on a 96-well cell culture plate using the culture medium described above. […] Following the culture, the cell culture plate was washed three times with PBS (−) solution to remove the cells floating in the culture medium. As a result, there remained only the cells adhering on the inside bottom of the cell culture plate. […] The culture supernatant was removed. As a result, there remained only the cells firmly adhering on the inside bottom of the cell culture plate, as described above. […] Thiazolyl blue (MTT) (C18H16N5SBr) (Sigma. St. Louis, USA) was added in the final concentration of 0.35 mg/mL, and the cells were cultured at 37° C. for 2 to 4 hours until the cells were stained. MTT is taken up into cells, and the dye is discolored only in live cells. Therefore, the amount of the live cells existing can be confirmed from the amount of the dye. This means that the larger the amount of the dye is, the higher the number of the cells and the cell activity are. After the cells were sufficiently stained with MTT, the culture supernatant was removed by aspiration. The cells were dissolved by addition of 100 μl of cell lysis solution (2-propanol (isopropanol; Wako Pure Chemical Industries LTD, Osaka, Japan) mixed with 12 M (mol/L) hydrochloric acid (HCl; Wako Pure Chemical Industries LTD, Osaka, Japan)), to recover the dye in the cells. Absorbance in the cell culture plate was measured at 2 absorbance wavelengths of 570 nm and 690 nm using an absorbance reader (Titertek Multiskan MCC/340, Labsystems, Flow Laboratories Inc., USA).
# CD11a = assay: Detection of cell membrane differentiation antigen CD11a of human peripheral blood monocyte (FACS); type: cell-based; details: for number of the cell expressing CD11a on the cell surface / rate to the total cells of the cells with expression of CD11a or CD18: peripheral blood monocytes cultured with polyamine
# Description: (§1) Human peripheral blood was collected, and peripheral blood monocytes including lymphocyte, monocyte and the like were recovered from the collected blood by specific gravity centrifugation technique using SEPARATE-L (Muto Pure Chemicals Co. LTD., Tokyo, Japan). Next, the recovered peripheral blood monocytes were suspended in PRMI1640 culture medium (Sigma chemical co., St. Louis, USA) mixed with 10% human serum (Wako Pure Chemical Industries LTD., Osaka, Japan), 0.1% L-glutamine (Invitrogen Corp., CA, USA), and 0.01% penicillin-streptomycin (Invitrogen Corp., CA, USA) and cultured in the humidified air at 37° C. containing 5% carbonic acid gas. […] Following culture for a given time, the peripheral blood monocytes were recovered from the culture medium and used in Examples 2, 4, 5, and 6.
# For confirming that obtained experimental results were not derived from changes produced by the polyamines present in the culture medium and kept in contact with the cells for a long time, different peripheral blood monocytes were prepared.
# (§2) The peripheral blood monocytes cultured for 16 to 80 hours by the method of Example 1 were collected from the cell culture plate so as not to damage the cells. The collected cells were washed with PBS (−) solution and then fixed using phosphate buffered saline without calcium chloride and without magnesium chloride (hereinafter, referred to as PBS (−); Invitrogen Corporation, GIBCO, Grand Island, N.Y., USA) containing 2% paraformaldehyde (Wako Pure Chemical Industries LTD, Osaka, Japan), so as not to achieve change in cell membrane antigen molecules on the cell surface of the peripheral blood monocytes. The peripheral blood monocytes were further washed, to which antibodies to the cell membrane antigen molecules were then added in an amount corresponding to 5 μL (microliter) per 500000 cells. The antibodies used here are CD2 (FITC label), CD4 (FITC), CD8 (PE label), CD11a (FITC), CD11b (PE), CD11c (PE), CD18 (FITC), CD31 (PE), CD49d (PE), CD49e (PE), CD54 (PE), CD62L (PE), CD95 (FITC), and VIA-PROBE (FITC). All of these antibodies are manufactured by PharMingen (A Becton Dickinson Company, San Jose, Calif., USA).
# (§3) After each antibody was added to the cells and reacted in the dark for 20 minutes, positive rate and light intensity of the cell membrane differentiation antigen expressed in the cultured peripheral blood were measured with FACS analyzer (FACSCalibur; manufactured by Becton Dickinson) (Becton Dickinson Japan, Tokyo). The population of the peripheral blood monocytes was of interest in the measurement of florescence of the cell surface, and the measurement of all of the cultured cells was also conducted at the same time. Further, a negative control was used, and a measurement gate was set to obtain each antibody positive rate of the cells within the gate and average fluorescence intensity of the positive cells.
# LFA-1 and ICAM-1 = LFA-1 and ICAM-1 (Homo sapiens, UniProt P20701); details: cited from earlier work
# psoriasis = details: clinical examples, human; cited from earlier work
# [3] = system: vascular endothelial cell; details: cited from earlier work
# [4] = system: peripheral blood monocytes; details: for cellular cytotoxicity: peripheral blood monocytes, VIA-Probe
# Description: as §1, §2, §3
# rats [5] = details: cited from earlier work
# [6] = system: peripheral blood monocytes; assay: Blastogenesis of peripheral blood monocytes by Con-A or PHA (3H-thymidine); type: cell-based, human; details: cultured with 100 μM polyamine for approximately 12 to 18 hours
# Experimental: Following the culture, the cells were washed three times with PBS (−) to remove extracellular polyamines, The washed peripheral blood monocytes were cultured for 64 hours in culture medium (RPMI1640 containing 10% fetal bovine serum) mixed with PHA (Difco Laboratories, Detroit, Mich., USA) or Con-A (Sigma chemical co., St. Louis, USA). Then, ^3H-thymidine (Amersham) was added to the cells, followed by additional culture for 8 hours. Following the culture, the peripheral blood monocytes were recovered, and radioactivity of the cells was measured (liquid scintillation counter, LKB-1205, LKB). Since the peripheral blood monocytes activated by mitogen (PHA, Con-A, or the like) cause blast transformation, the cells take up ^3H-thymidine therein. Accordingly, function of cell activation can be measured by measuring the amount of intracellular ^3H-thymidine.
# rats [7] = details: cited from earlier work; remark: listed apart in the source
# [8] = system: peripheral blood monocytes; assay: Number and activity of the total cultured cells (MTT), cytotoxicity check; type: cell-based, human; details: for cellular cytotoxicity to the peripheral blood monocytes: high concentrations (up to 1 mM); for amount of the MTT dye taken up into the cells (total cultured cells): total cells in the plate, varying polyamine concentration
# Experimental: Then, the culture supernatant in the plate was removed with the utmost caution not to soak up the cells adhering on the inside bottom of the plate. This means that all the cells present in the cell culture plate exist on the inside bottom of the plate. […] Absorbance of the cell culture medium was measured at 2 absorbance wavelengths of 570 nm and 690 nm using an absorbance reader (Titertek Multiskan MCC/340, Labsystems, Flow Laboratories Inc., USA). As a result, each polyamine concentration and the total amount of live cells of the cultured peripheral blood monocytes can be confirmed.
# CD18 = assay: Detection of cell membrane differentiation antigen CD18 of human peripheral blood monocyte (FACS); type: cell-based; details: peripheral blood monocytes cultured with polyamine
# Description: as §1, with “6. […]” for “6.”
# as §3, with “The population of the peripheral blood monocytes was of interest in the measurement of florescence of the cell surface, and the measurement of all of the cultured cells was also conducted at the same time.” left out
# [9] = system: adhesion molecules (CD11b, CD11c, CD31, CD49d, CD49e, CD54, and CD62L); assay: Detection of adhesion molecules except CD11a and CD18 on human peripheral blood monocyte (FACS); type: cell-based; details: for average fluorescence intensity of adhesion molecules (CD11b, CD11c, CD31, CD49d, CD49e, CD54, and CD62L) except CD11a and CD18: peripheral blood monocytes cultured with polyamine
# Description: as §1, §2, §3
# [10] = system: functional cell membrane differentiation antigen except adhesion molecules
# Description: as §1, §2, §3
# intestinal mucosa = details: contained in meal; cited from earlier work
# [11] = system: CD16, CD31, CD49d, and CD54; details: peripheral blood monocyte accidentally infected; cultured with spermine
# Experimental: as §2, with “The antibodies used here are CD2 (FITC label), CD4 (FITC), CD8 (PE label), CD11a (FITC), CD11b (PE), CD11c (PE), CD18 (FITC), CD31 (PE), CD49d (PE), CD49e (PE), CD54 (PE), CD62L (PE), CD95 (FITC), and VIA-PROBE (FITC). All of these antibodies are manufactured by PharMingen (A Becton Dickinson Company, San Jose, Calif., USA).” left out
# as §3, with “The population of the peripheral blood monocytes was of interest in the measurement of florescence of the cell surface, and the measurement of all of the cultured cells was also conducted at the same time.” left out
# [12] = system: Daudi cells (Burkitt lymphoma cells); details: cultured overnight with 100 μM spermine, then IL-2 for 72 hours
# [13] = peripheral blood monocytes cultured with polyamine (0, 100, 500 μM) for 70 to 80 hours
# LFA-1 and ICAM-1, sequence (P20701 26-1170): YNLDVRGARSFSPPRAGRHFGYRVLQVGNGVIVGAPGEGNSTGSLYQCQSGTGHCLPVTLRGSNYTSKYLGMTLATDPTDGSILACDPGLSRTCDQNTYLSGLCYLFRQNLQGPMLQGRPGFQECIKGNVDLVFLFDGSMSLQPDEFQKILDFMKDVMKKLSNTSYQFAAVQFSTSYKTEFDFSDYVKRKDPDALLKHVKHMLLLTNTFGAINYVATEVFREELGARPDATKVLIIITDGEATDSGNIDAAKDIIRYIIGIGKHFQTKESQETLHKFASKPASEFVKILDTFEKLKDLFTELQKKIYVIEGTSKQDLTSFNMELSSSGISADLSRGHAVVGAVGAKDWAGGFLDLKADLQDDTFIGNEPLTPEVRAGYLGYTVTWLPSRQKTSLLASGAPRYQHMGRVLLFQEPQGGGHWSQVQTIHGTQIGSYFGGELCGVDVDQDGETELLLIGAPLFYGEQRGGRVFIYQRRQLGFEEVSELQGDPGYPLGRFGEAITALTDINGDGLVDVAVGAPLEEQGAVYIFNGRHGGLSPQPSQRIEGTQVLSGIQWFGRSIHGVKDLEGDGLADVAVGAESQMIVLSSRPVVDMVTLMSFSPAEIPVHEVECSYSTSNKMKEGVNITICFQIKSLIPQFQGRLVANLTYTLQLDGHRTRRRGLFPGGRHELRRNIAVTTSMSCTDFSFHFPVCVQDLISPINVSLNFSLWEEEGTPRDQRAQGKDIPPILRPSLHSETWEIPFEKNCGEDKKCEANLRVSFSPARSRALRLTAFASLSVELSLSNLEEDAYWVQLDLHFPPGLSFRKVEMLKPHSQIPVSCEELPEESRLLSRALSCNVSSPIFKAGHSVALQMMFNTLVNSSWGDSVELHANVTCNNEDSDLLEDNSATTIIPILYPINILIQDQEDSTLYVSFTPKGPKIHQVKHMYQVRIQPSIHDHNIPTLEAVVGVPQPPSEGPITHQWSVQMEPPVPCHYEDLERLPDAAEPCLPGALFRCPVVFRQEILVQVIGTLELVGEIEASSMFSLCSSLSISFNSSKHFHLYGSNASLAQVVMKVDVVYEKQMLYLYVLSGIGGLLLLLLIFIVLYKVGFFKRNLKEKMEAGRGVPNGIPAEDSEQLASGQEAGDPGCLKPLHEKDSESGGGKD
# LFA-1 and ICAM-1, sequence (P05107 23-769 partner): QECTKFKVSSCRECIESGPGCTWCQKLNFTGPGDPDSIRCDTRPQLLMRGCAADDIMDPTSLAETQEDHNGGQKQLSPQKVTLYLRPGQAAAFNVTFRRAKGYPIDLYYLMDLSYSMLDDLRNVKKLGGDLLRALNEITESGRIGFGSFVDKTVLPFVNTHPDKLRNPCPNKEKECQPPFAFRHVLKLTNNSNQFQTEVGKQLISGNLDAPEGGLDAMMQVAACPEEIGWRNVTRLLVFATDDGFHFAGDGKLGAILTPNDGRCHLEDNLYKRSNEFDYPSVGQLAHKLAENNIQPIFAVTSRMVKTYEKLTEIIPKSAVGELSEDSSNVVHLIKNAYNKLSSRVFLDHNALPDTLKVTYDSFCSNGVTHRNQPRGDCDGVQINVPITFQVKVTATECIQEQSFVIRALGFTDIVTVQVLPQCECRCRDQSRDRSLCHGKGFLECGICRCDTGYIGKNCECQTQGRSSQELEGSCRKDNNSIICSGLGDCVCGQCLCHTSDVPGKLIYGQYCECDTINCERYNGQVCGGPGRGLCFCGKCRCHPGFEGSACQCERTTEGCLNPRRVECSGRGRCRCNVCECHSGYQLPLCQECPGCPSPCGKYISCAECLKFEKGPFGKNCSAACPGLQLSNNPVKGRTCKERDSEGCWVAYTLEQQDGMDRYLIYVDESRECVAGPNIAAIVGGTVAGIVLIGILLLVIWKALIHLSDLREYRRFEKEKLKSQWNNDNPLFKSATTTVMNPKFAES
Compound,number of the cells adhering to the vascular endothelial cells [1],number of the cells adhering on the plate surface [2],average fluorescence intensity of CD11a (CD11a; [13]),cellular cytotoxicity [4],inhibition effect on cell adhesion to the cell culture plate [2],blastogenesis by Con-A or PHA [6],cellular cytotoxicity to the peripheral blood monocytes [8],amount of the MTT dye taken up into the cells (total cultured cells) [8],average fluorescence intensity of CD18 (CD18),number of the cell expressing CD11a on the cell surface (CD11a),rate to the total cells of the cells with expression of CD11a or CD18 (CD11a),"average fluorescence intensity of adhesion molecules (CD11b, CD11c, CD31, CD49d, CD49e, CD54, and CD62L) except CD11a and CD18 [9]",other results
"Cl.Cl.NCCCCN [putrescine, 1,4-Butanediamine dihydrochloride, reference compound]",not inhibited,not inhibited,not evident,–,–,–,–,–,–,–,–,–,–
CC[C@H](C)C(=O)O[C@H]1C[C@@H](C)C=C2C=C[C@H](C)[C@H](CC[C@@H]3C[C@@H](O)CC(=O)O3)[C@H]21 [lovastatin],–,–,–,–,–,–,–,–,–,–,–,–,adhesion between LFA-1 and ICAM-1 (LFA-1 and ICAM-1): blocks adhesion between LFA-1 and ICAM-1
efalizumab: a CD11a antibody,–,–,–,–,–,–,–,–,–,–,–,–,psoriasis symptoms (psoriasis): improved
CC(C)c1c(C(=O)Nc2ccccc2)c(-c2ccccc2)c(-c2ccc(F)cc2)n1CC[C@@H](O)C[C@@H](O)CC(=O)O [atorvastatin],–,–,–,–,–,–,–,–,–,–,–,–,monocyte adhesion to vascular endothelial cell [3]: inhibits monocyte adhesion to vascular endothelial cell
"NCCCCNCCCN [spermidine, N-aminobutyl-1,3-diaminopropane]",–,decreased with increase of spermine and spermidine concentrations,inhibited dependently on spermidine concentration,no cellular cytotoxicity,not exhibited,rather enhanced,no cellular cytotoxicity,no reduction,decreased,increased,not decreased,not decreased,"amount up to which no side effect is observed (rats [5]; subacute toxicity test, administration for 6 weeks): up to 83 mg/kg of body weight/day; 50% lethal dose (LD50) (rats [7]; rats, acute toxicity test): 600 mg/kg of body weight"
"NCCCNCCCCNCCCN [spermine, 4,9-diazadodecane-1,12-diamine]",low,decreased with increase of spermine and spermidine concentrations,reduced as spermine concentration was increased; also recorded: strongest,no cellular cytotoxicity,not exhibited,rather enhanced,no cellular cytotoxicity,no change,decreased with increase of spermine concentration,increased,not decreased,not decreased,"average fluorescence intensity of cell membrane differentiation antigens other than the adhesion molecules ([10]; FIG. 8, cells cultured with spermine): no decrease; expression rate of cell membrane differentiation antigen except adhesion molecules (expression positive rate) ([10]; cells cultured with spermine): not decreased; dead cells (VIA-Probe) ([4]; spermine concentration that most strongly decreased CD11a and CD18 fluorescence): not increased; concentration in meal at which it has toxicity (intestinal mucosa): ≥ 0.2%; amount up to which no side effect is observed (rats [5]; rat, in vivo): up to 19 mg/kg of body weight/day; number of the adhering cells (vascular endothelial cells) ([1]; culture with 500 μM spermine for 20 hours): not decreased; inhibition of cell adhesion to the inside bottom of the culture plate ([2]; plate inverted and centrifuged (500 rpm, 5 minutes) after 70 to 82 hours culture): more remarkable result of the inhibition; 50% lethal dose (LD50) (rats [7]; rat, in vivo): 600 mg/kg of body weight; expression of cell membrane differentiation antigen such as CD16, 31, 49d, and 54 (average fluorescence intensity) [11]: markedly decreased; cellular cytotoxicity (LAK activity) of the peripheral blood monocytes [12]: reduced; average fluorescence intensity of CD11a (decreasing effect) (CD11a; cells cultured for 20 to 26 hours): not observed; number of the cells having strong fluorescent intensity (CD11a histogram) (CD11a; cells supplemented with spermine): decreased; average fluorescence intensity of CD11a (CD11a; cultured with spermine 16 to 24 hours, washed, then cultured without spermine 48 to 56 hours): decrease of the average fluorescence intensity of CD11a; expression rate of adhesion molecules (expression positive rate) ([9]; cells cultured with spermine): not decreased; average fluorescence intensity of CD62L ([9]; peripheral blood monocytes cultured with spermine): obviously increased dependently on spermine concentration"
